From the NIST ThermoML archive (doi:10.1021/je0504358)

Conditions: Liquid, Twin ebulliometer

O=C1C=CCCC1 [2-cyclohexen-1-one]
Conditions	vapor or sublimation pressure [kPa]
350.4 K	4.147
353.66 K	4.786
357.56 K	5.662
361.48 K	6.709
366.16 K	8.095
370.32 K	9.581
374.97 K	11.46
379 K	13.31
380.5 K	14.06
386.63 K	17.53
388.4 K	18.68
391.77 K	20.95
397.16 K	25.2
404.53 K	32.03
407.95 K	35.56
410.86 K	39.01
424.23 K	57.64
445 K	100.4

CC1CCCCC1=O (stereo unspecified) [2-methylcyclohexanone]
Conditions	vapor or sublimation pressure [kPa]
338.76 K	3.333
342.2 K	3.912
348.85 K	5.267
350.96 K	5.763
353.34 K	6.401
355.93 K	7.129
358.53 K	7.941
360.73 K	8.678
363.09 K	9.543
366.66 K	10.98
369.65 K	12.3
372.7 K	13.79
376.36 K	15.79
381.72 K	19.12
384.91 K	21.37
389.42 K	24.9
394.59 K	29.53
398.32 K	33.29
399.98 K	35.05
408.17 K	45.03
411.64 K	49.98
414 K	53.52
418.28 K	60.46
436.94 K	99.71

CCCCCC=O [hexanal]
Conditions	vapor or sublimation pressure [kPa]
322.27 K	5.184
325.43 K	6.001
327.84 K	6.711
330.22 K	7.51
333.56 K	8.713
338.89 K	10.99
342.12 K	12.59
347.22 K	15.55
353.44 K	19.8
360.11 K	25.45
366.28 K	31.91
371.95 K	38.88
377.98 K	47.56
402.17 K	99.72
